These results are taken from US10730878B2, “Fused quinoline compounds as PI3K/mTOR inhibitors” (ADVENCHEN PHARMACEUTICALS, LLC, priority 2015, dated 2020).

One assay has as its system pi3K. The assay can be described thus: pi3K kinase inhibition, % activity at 0.03 μM (kinases panel screening). It counts as biochemical. To be noted: 0.03 μM compound. An excerpt: (§1) In vitro kinase inhibition activities included Pi3k and mTor activities can be tested with Millipore/Merck KGA of Europe in their kinases panel screening. Animal antitumor activity testing can be conducted by various cancer xenograft models for a compound of formula I. […]

A further assay concerns the target T1, mTor (Homo sapiens, UniProt P42345).
T1 construct: purchased Millipore/Merck KGA of Europe (panel screening service)
As to the kind of experiment: mTor kinase inhibition, % activity at 0.03 μM (kinases panel screening). It is filed as biochemical. To be noted: 0.03 μM compound.
Description: as §1

As to “N-{5-[16-(4-tert-butylphenyl)-8,11,13,14,16-pentaazatetracyclo[8.6.0.0^2,^7.0^11,^1^5]hexadeca-1(10),2,4,6,8,12,14-heptaen-4-yl]pyridin-2-yl}-2-(pyrrolidin-1-yl)acetamide”, the “pi3K % activity @0.03 μM” value in the assay with pi3K is reported as 88%. Further, the “mTor % activity @0.03 μM” value at mTor worked out at 27%.
The matching figures for `Cc1nnc2n(-c3ccc(C(C)(C)C)cc3)c3c4cc(-c5cnc(N)cc5C(F)(F)F)ccc4ncc3n12` [5-[16-(4-tert-butylphenyl)-12-methyl-8,11,13,14,16-pentaazatetracyclo[8.6.0.0^2,^7.0^11,^1^5]hexa-deca-1(10), 2,4,6,8,12,14-heptaen-4-yl]-4-(trifluoromethyl)pyridin-2-amine]: 50% and 94%.
The corresponding values for `CC(C)(C)c1ccc(-n2c3c4cc(-c5cnc(N)cc5C(F)(F)F)ccc4ncc3n3cnnc23)cc1` [5-[16-(4-tert-butylphenyl)-8,11,13,14,16-pentaazatetracyclo[8.6.0.0^2,^7.0^11,^1^5]hexadeca-1(10),2,4,6,8,12,14-heptaen-4-yl]-4-(trifluoromethyl)pyridin-2-amine] are 30% and 83%.
The corresponding values for `CC(C)(C#N)c1ccc(-n2c3c4cc(-c5cnc(N)cc5C(F)(F)F)ccc4ncc3n3cnnc23)cc1` [2-(4-{4-[6-amino-4-(trifluoromethyl)pyridin-3-yl]-8,11,13,14,16-pentaazatetracyclo-[8.6.0.0^2,^7.0^11,^1^5]hexadec-1(10),2,4,6,8,12,14-heptaen-16-yl}phenyl)-2-methylpropanenitrile] are 65% and 87%.
